In PubChem BioAssay AID2060333 (Molecular Pharmacology Branch, DTP, NCI, 2025):

Tested on: 845751-090-R-J2-PDC tumor spheroid viability
Test: Anticancer human tumor 845751-090-R-J2-PDC patient-derived head and neck squamous carcinoma cell line growth inhibition [IpAb]
Details: spheroids with HUVEC and MSC; for IC50: curve of first compound; for viability, T/C: stronger effect = lower value
Outline: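 Spheroids of 60% malignant cells, 25% HUVEC and 15% MSC were exposed to targeted agents combined with ipatasertib or abemaciclib. Doses started at or near clinical Cmax (10 microM when unknown) and fell in half-log steps.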

[1] = second compound 0.1 µM, first compound 0.0316 µM
[2] = second compound 0.1 µM, first compound 0.1 µM
[3] = second compound 0.1 µM, first compound 0.316 µM
[4] = second compound 0.1 µM, first compound 1 µM
[5] = second compound 0.1 µM, first compound 3.16 µM
[6] = second compound 0.1 µM, first compound 10 µM
[7] = second compound 0.316 µM, first compound 0.0316 µM
[8] = second compound 0.316 µM, first compound 0.1 µM
[9] = second compound 0.316 µM, first compound 0.316 µM
[10] = second compound 0.316 µM, first compound 1 µM
[11] = second compound 0.316 µM, first compound 3.16 µM
[12] = second compound 0.316 µM, first compound 10 µM
[13] = second compound 1 µM, first compound 0.0316 µM
[14] = second compound 1 µM, first compound 0.1 µM
[15] = second compound 1 µM, first compound 0.316 µM
[16] = second compound 1 µM, first compound 1 µM
[17] = second compound 1 µM, first compound 3.16 µM
[18] = second compound 1 µM, first compound 10 µM
[19] = second compound 3.16 µM, first compound 0.0316 µM
[20] = second compound 3.16 µM, first compound 0.1 µM
[21] = second compound 3.16 µM, first compound 0.316 µM
[22] = second compound 3.16 µM, first compound 1 µM
[23] = second compound 3.16 µM, first compound 3.16 µM
[24] = second compound 3.16 µM, first compound 10 µM
[25] = second compound 10 µM, first compound 0.0316 µM
[26] = second compound 10 µM, first compound 0.1 µM
[27] = second compound 10 µM, first compound 0.316 µM
[28] = second compound 10 µM, first compound 1 µM
[29] = second compound 10 µM, first compound 3.16 µM
[30] = second compound 10 µM, first compound 10 µM
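Note: spheroids exposed to compounds for 7 days before readout.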
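Throughout, for viability, T/C: CTG3D luminescence normalised so that 100% = DMSO vehicle control.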

Row | Structure (SMILES) | IC50 (second compound 0.1 µM) [nM] | IC50 (second compound 0.316 µM) [nM] | IC50 (second compound 1 µM) [nM] | IC50 (second compound 3.16 µM) [nM] | IC50 (second compound 10 µM) [nM] | viability, T/C [1] [%] | viability, T/C [2] [%] | viability, T/C [3] [%] | viability, T/C [4] [%] | viability, T/C [5] [%] | viability, T/C [6] [%] | viability, T/C [7] [%] | viability, T/C [8] [%] | viability, T/C [9] [%] | viability, T/C [13] [%] | viability, T/C [14] [%] | viability, T/C [19] [%] | viability, T/C [20] [%] | viability, T/C [25] [%] | viability, T/C [26] [%] | other results
1 | C=CC(=O)N1CCN(c2nc(=O)n(-c3c(C)ccnc3C(C)C)c3nc(-c4c(O)cccc4F)c(F)cc23)C(C)C1 (stereo not given) + CC(C)NCC(C(=O)N1CCN(c2ncnc3c2C(C)CC3O)CC1)c1ccc(Cl)cc1 | < 31.6 | < 31.6 | < 31.6 | < 31.6 | < 31.6 | 47.1 | 46.7 | 28.9 | 36.3 | 22.1 | 10.7 | 28.2 | 30.3 | 21.2 | 22.9 | 25 | 21.7 | 18.3 | 15.2 | 12.3 | viability, T/C [10]: 24.9%; viability, T/C [11]: 21.9%; viability, T/C [12]: 13.8%; viability, T/C [15]: 21.5%; viability, T/C [16]: 28.2%; viability, T/C [17]: 19.3%; viability, T/C [18]: 7.88%; viability, T/C [21]: 22.9%; viability, T/C [22]: 19.7%; viability, T/C [23]: 11.9%; viability, T/C [24]: 5.86%; viability, T/C [27]: 12.2%; viability, T/C [28]: 12.5%; viability, T/C [29]: 8.32%; viability, T/C [30]: 3.28%
2 | Cn1ncc(Cl)c1-c1cc(C(=O)NC(CN)Cc2cccc(F)c2)sc1Cl (stereo not given) + CC(C)NCC(C(=O)N1CCN(c2ncnc3c2C(C)CC3O)CC1)c1ccc(Cl)cc1 | 188 | < 31.6 | < 31.6 | < 31.6 | < 31.6 | 84.6 | 59.2 | 33.2 | 37 | 12.1 | 0.32 | 46.6 | 35.4 | 37.3 | 39.3 | 37.9 | 29 | 27 | 17.5 | 16.1 | viability, T/C [10]: 34.4%; viability, T/C [11]: 13.6%; viability, T/C [12]: 0.51%; viability, T/C [15]: 37.2%; viability, T/C [16]: 27.1%; viability, T/C [17]: 8.86%; viability, T/C [18]: 0.24%; viability, T/C [21]: 26.3%; viability, T/C [22]: 24.2%; viability, T/C [23]: 8.88%; viability, T/C [24]: 0.54%; viability, T/C [27]: 24.5%; viability, T/C [28]: 13.5%; viability, T/C [29]: 7.33%; viability, T/C [30]: 0.88%
3 | Cn1ncnc1[C@H]1c2n[nH]c(=O)c3cc(F)cc(c23)N[C@@H]1c1ccc(F)cc1 + CC(C)NCC(C(=O)N1CCN(c2ncnc3c2C(C)CC3O)CC1)c1ccc(Cl)cc1 | 25.8 | < 0.316 | < 0.316 | < 0.316 | < 0.316 | 54.1 | 33.6 | – | – | – | – | 26.1 | 22.3 | – | 22.9 | 20 | 14.7 | 14.8 | 11.6 | 9.65 | viability, T/C (second compound 0.1 µM, first compound 0.000316 µM): 53.9%; viability, T/C (second compound 0.1 µM, first compound 0.001 µM): 88.8%; viability, T/C (second compound 0.1 µM, first compound 0.00316 µM): 57%; viability, T/C (second compound 0.1 µM, first compound 0.01 µM): 49.1%; viability, T/C (second compound 0.316 µM, first compound 0.000316 µM): 38.1%; viability, T/C (second compound 0.316 µM, first compound 0.001 µM): 25%; viability, T/C (second compound 0.316 µM, first compound 0.00316 µM): 34.4%; viability, T/C (second compound 0.316 µM, first compound 0.01 µM): 29.6%; viability, T/C (second compound 1 µM, first compound 0.000316 µM): 30.1%; viability, T/C (second compound 1 µM, first compound 0.001 µM): 27.1%; viability, T/C (second compound 1 µM, first compound 0.00316 µM): 23.8%; viability, T/C (second compound 1 µM, first compound 0.01 µM): 28.5%; viability, T/C (second compound 3.16 µM, first compound 0.000316 µM): 29.6%; viability, T/C (second compound 3.16 µM, first compound 0.001 µM): 22.4%; viability, T/C (second compound 3.16 µM, first compound 0.00316 µM): 20.2%; viability, T/C (second compound 3.16 µM, first compound 0.01 µM): 24.8%; viability, T/C (second compound 10 µM, first compound 0.000316 µM): 14.8%; viability, T/C (second compound 10 µM, first compound 0.001 µM): 16.9%; viability, T/C (second compound 10 µM, first compound 0.00316 µM): 12.3%; viability, T/C (second compound 10 µM, first compound 0.01 µM): 10.7%
